Reference: patent publication US6825230B2, “Spiro and dispiro 1,2,4-trixolane antimalarials” (Medicines for Malaria Venture MMV, priority 2002, dated 2004)
Like-named read-outs stand apart in the source and are kept apart here.

Assays:
[1] = tested on: P. berghei ANKA strain; assay: Divided 3x10 mg/kg vs single 1x30 mg/kg po dose in infected mice; type: in vivo, Plasmodium berghei; details: for Survival (days) 3 × 10 mg/kg p.o. SSV / Activity (%) 3 × 10 mg/kg p.o. SSV: 10 mg/kg po on days 1, 2, 3 post-infection; for Activity (%) 3 × 10 mg/kg p.o. SSV / Activity (%) 1 × 30 mg/kg p.o. SSV: parasitemia reduction on day 4; for Survival (days) 1 × 30 mg/kg p.o. SSV / Activity (%) 1 × 30 mg/kg p.o. SSV: single 30 mg/kg po on day 1 post-infection; for Cures 1 × 30 mg/kg p.o. SSV: single 30 mg/kg po
Method: (§1) Moro NMRI male mice (Fu Albino specific pathogen free) weighing 18±2 g were infected intravenously (i.v.) with 2×10^7 P. berghei ANKA strain-infected erythrocytes from donor mice on day 0 of the experiment. From donor mice with circa 30% parasitemia, heparinized blood was taken and diluted in physiological saline to 10^8 parasitized erythrocytes per ml. An aliquot (0.2 ml) of this suspension was injected i.v. into experimental and control groups of mice. […] Throughout the experiments, mice were kept in groups of three or five animals in Makrolon type II cages in an air-conditioned animal room at 22 to 23° C.
They were administered per os (p.o.) in a total volume of 0.01 ml per gram of mouse. The activity of the compound was determined by a variety of methods outlined in subsequent sections. Survival time was also recorded, and survival to day 30 post-infection was considered to be a cure.
The first experiment conducted consisted of administration of a divided 3×10 mg/kg p.o. dose administered on days 1, 2, and 3 post-infection vs. a single 1×30 mg/kg po dose administered on day 1 post-infection. On day 4 post-infection, blood smears of all animals were prepared and stained with Giemsa. […] Compounds were administered orally in the SSV vehicle.

[2] = tested on: ANKA strain of P. berghei; assay: Single dose STI in vivo screen in infected mice; set-up: species or system Plasmodium berghei; details: for Survival (days) 10 mg/kg SSV po: single 10 mg/kg po in SSV, untreated 6-7 days
[3] = tested on: P. berghei ANKA strain; assay: Prophylactic activity, single 100 mg/kg po at various times before infection; type: in vivo, Plasmodium berghei; details: for Prophylactic Activity (%) 24 h: single 100 mg/kg po 24 h before infection; for Prophylactic Activity (%) 48 h: single 100 mg/kg po 48 h before infection; for Prophylactic Activity (%) 0 h: single 100 mg/kg po at 0 h
Method: as §1
Prophylactic activities of the compounds were compared after administering po single dose of 100 mg/kg to different groups of five animals at various times before infection. All groups including an untreated control group, were then infected at the same time. Parasitemia was determined for each animal on day 3 post-infection, and percent of reduction of the level of parasitemia compared to levels for animals given no drug is determined.

[4] = tested on: P. berghei ANKA strain; assay: Onset of action and recrudescence experiment, single 100 mg/kg po; type: in vivo, Plasmodium berghei; details: single 100 mg/kg po (SSV) on day +3 post-infection; recrudescence = >5% parasitemia; followed up to 60 days; groups of five
Method: The onset of drug action was determined after a single fixed dose of 100 mg/kg (SSV vehicle) po to groups of five animals on day +3 post-infection (day 0).
as §1

[5] = tested on: ANKA strain of Plasmodium berghei; assay: Single dose ED50/ED90/ED99 determination in infected mice; type: in vivo
How it was run: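 Moro SPF or NMRI mice (three per group) infected with P. berghei ANKA were dosed once on day 1 post-infection in SSV (0.5% CMC, 0.5% benzyl alcohol, 0.4% Tween 80, 0.9% NaCl). Parasitemia reduction was scored on day 3; ED values (mg/kg) came from nonlinear fitting.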

[6] = tested on: P. berghei ANKA strain; assay: Divided 3x3 mg/kg and 3x1 mg/kg po doses in infected mice; type: in vivo, Plasmodium berghei
How it was run: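 Male NMRI mice were infected i.v. with 2×10^7 P. berghei-parasitized erythrocytes on day 0, then dosed orally in SSV vehicle on days 1, 2 and 3 post-infection.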

[7] = tested on: Schistosoma mansoni adult worms (49-day-old); assay: Effect on adult schistosomes (49-day-old) in infected mice; type: in vivo; details: single 400 mg/kg per os
Method: Mice were infected with 100 Schistosoma mansoni cercariae on day 49 post-treatment. Each group was treated per os with OZ compounds at single doses of 200, 400, and 600 mg/kg. Untreated mice served as the control. All groups were killed 4 weeks after treatment and the liver and intestine were removed and separated. The liver and intestine were compressed and alive male and female worms could be seen and counted.

[8] = Pharmacokinetics in dogs (IV and oral dosing); details: in vivo, dog; for bioavailability: some values marked (V), not defined
Source text: (§2) Artesunate is listed as a reference compound.

[9] = Pharmacokinetics in rats (IV and oral dosing); details: in vivo, rat; for bioavailability: po
Source text: as §2

[10] = cure = survival to day 30 post-infection
[11] = parasitemia reduction on day 3 post-infection
[12] = single dose po in SSV on day 1 post-infection, parasitemia day 3, nonlinear fitting
[13] = 3 × 1 mg/kg p.o. SSV on days 1, 2, 3 post-infection
[14] = 3 × 3 mg/kg p.o. SSV on days 1, 2, 3 post-infection
[15] = 3 × 3 mg/kg p.o. SSV on days 1, 2, 3 post-infection, percent reduction of parasitemia vs control on day 4

| Structure (SMILES) | Survival (days) 3 × 10 mg/kg p.o. SSV [1] [days] | Activity (%) 3 × 10 mg/kg p.o. SSV [1] [%] | Survival (days) 1 × 30 mg/kg p.o. SSV [1] [days] | Activity (%) 1 × 30 mg/kg p.o. SSV [1] [%] | Cures 1 × 30 mg/kg p.o. SSV [1, 10] | Survival (days) 10 mg/kg SSV po [2] [days] | Prophylactic Activity (%) 24 h [3, 11] [%] | Prophylactic Activity (%) 48 h [3, 11] [%] | Prophylactic Activity (%) 0 h [3, 11] [%] | Time of Recrudescence [4] [days] | ED99 [5, 12] [mg/kg] | Survival [6, 13] [days] | Survival [6, 14] [days] | Activity (%) [6, 15] [%] | other results |
| --- | --- | --- | --- | --- | --- | --- | --- | --- | --- | --- | --- | --- | --- | --- | --- |
| OC(c1cc(C(F)(F)F)nc2c(C(F)(F)F)cccc12)C1CCCCN1 (stereo not shown) [MFQ, mefloquine, reference compound] | 23.3 | 99.92 | 20.3 | 99.94 | 0/5 | 17 | 100 | 99.92 | 100 | 28.0 | 6.8 | 6.2 | 12 | 98 | Cures 3 × 10 mg/kg p.o. SSV ([1]; 10 mg/kg po on days 1, 2, 3, cure = survival to day 30 post-infection): 0/5; Activity (%) 3 mg/kg SSV po ([2]; single 3 mg/kg po in SSV, percent reduction in parasitemia on day 3): 9%; Activity (%) 10 mg/kg SSV po ([2]; single 10 mg/kg po in standard suspending vehicle (SSV) on day 1 post-infection, percent reduction in parasitemia on day 3): 99.11%; Duration of prophylactic protection ([3]; single 100 mg/kg po): 3 days; Prophylactic Activity (%) 72 h ([3]; single 100 mg/kg po 72 h before infection, parasitemia reduction on day 3 post-infection): 99.97%; ED50 [5, 12]: 4.0 mg/kg; ED90 [5, 12]: 5.4 mg/kg; Activity (%) ([6]; 3 × 1 mg/kg p.o. SSV on days 1, 2, 3 post-infection, percent reduction of parasitemia vs control on day 4): 2% |
| CC(C)(N)CNC(=O)C[C@H]1CC[C@]2(CC1)OO[C@]1(O2)C2CC3CC(C2)CC1C3 [OZ277] | 27.6 | 100 | 10.4 | 99.92 | 0/5 | 9.3 | 25 | 7 | 100 | 13.0 | 4.4 | 9.4 | 14 | 100 | Survival (days) 3 mg/kg SSV po ([2]; single 3 mg/kg po in SSV): 9.6 days; Prophylactic Activity (%) 72 h ([3]; po, 100 mg/kg): 9%; % reduction of adult worms growth at day 49 after per os application of 400 mg/kg, TWR (%) ([7]; 49-day-old adults, total worm reduction rate): 0/0%; Adult worms day 49, per os 400 mg/kg, DEAD WORM (%) ([7]; percentage of dead worm in the liver): 0/0%; ED50 ([5]; Plasmodium berghei, single dose po in SSV on day 1 post-infection, parasitemia day 3, nonlinear fitting, read-out: ED50): 0.78 mg/kg; ED90 ([5]; po): 2.0 mg/kg; Activity (%) ([6]; po, 1 mg/kg, 96 h): 83%; Cures ([6]; po, 3 mg/kg, 720 h): 0\5; half-life ([8]; IV 10 mg/kg): 1.58 h; half-life ([8]; oral 10 mg/kg): 2.47 h; bioavailability ([8]; oral 10 mg/kg, read-out: Dog Oral Bioavailability 10 mg/kg): 87.9%; bioavailability ([8]; oral 25 mg/kg, read-out: Dog Oral Bioavailability 25 mg/kg): 96.1%; half-life ([9]; IV 10 mg/kg): 1.29 h; half-life ([9]; oral 25 mg/kg): 1.51 h; bioavailability ([9]; 10 mg/kg): 36.9%; bioavailability ([9]; 25 mg/kg): 44.1% |
